Laboratory results as given in US20230357240A1, “NOVEL N-HETEROCYCLIC BET BROMODOMAIN INHIBITOR, AND PREPARATION METHOD THEREOF AND MEDICAL USE THEREOF” (Chengdu Easton Biopharmaceuticals Co., Ltd., priority 2020, published 2023).
Like-named read-outs stand apart in the source and are kept apart here. Values belong to the compound of their own block, whether it stands above or below them.

What was measured:
MV4-11 cell = MV4-11 cell proliferation experiment (CCK-8 cell viability); type: cell-based; details: Homo sapiens, MV4-11 cells, 72-hour culture
Procedure: EXAMPLE 9 Cell Experiment (MV4-11 Cell Proliferation Experiment)
Determination of Cell Viability with CCK-8 Reagent
(1) MV4-11 cell suspension was pipetted from a culture flask into a 15 mL centrifuge tube, and the cell suspension was centrifuged at 1000 rpm for 4 minutes.
(2) A supernatant in the centrifuge tube was discarded, and an appropriate amount of fresh complete medium (IMDM+10% FBS+1% P/S) was added to resuspend the cells. 20 μL of cell suspension was collected, 20 μL of trypan blue was added, and CounterStar was used for counting.
(3) A required cell suspension volume and complete medium volume were calculated according to viable cell density and the required number of plated cells. MV4-11 cells were plated at a density of 1*10^4 cells/well in 100 μL/well.
(4) 100 μL of the above cell suspension was pipetted into a 96-well plate by using an electric pipette. 150 μL of complete medium was added to blank control wells. PBS was added to peripheral wells of the 96-well plate, to avoid liquid evaporation. The 96-well plate was cultured overnight in an incubator.
Day 2: Compound Preparation:
(1) The compound of the present application dissolved in DMSO and the positive control substance ABBV-744 were fetched, and subjected to serial dilution (dilution in column A, column B, . . . , column J sequentially from left to right in a 96-well PCR plate).
An initial concentration of the solution in column A is 10 mM;
Column B: 2 μL of the solution in column A was diluted with 8 μL of DMSO to obtain a final concentration of 2000 μM;
Column C: 2 μL of the solution in column B was diluted with 8 μL of DMSO to obtain a final concentration of 400 μM;
Column D: 2 μL of the solution in column C was diluted with 8 μL of DMSO to obtain a final concentration of 80 μM;
Column E: 2 μL of the solution in column D was diluted with 8 μL of DMSO to obtain a final concentration of 16 μM;
Column F: 2 μL of the solution in column E was diluted with 8 μL of DMSO to obtain a final concentration of 3.2 μM;
Column G: 2 μL of the solution in column F was diluted with 8 μL of DMSO to obtain a final concentration of 0.64 μM;
Column H: 2 μL of the solution in column G was diluted with 8 μL of DMSO to obtain a final concentration of 0.128 μM;
Column I: 2 μL of the solution in column H was diluted with 8 μL of DMSO to obtain a final concentration of 0.0256 μM; and
Column J: 2 μL of the solution in column I was diluted with 8 μL of DMSO to obtain a final concentration of 0.00512 μM.
The suspension was centrifuged for 1 minute at 1000 rpm by using a low-speed centrifuge.
(2) 3×Compound Preparation: (Diluted in a 96-Well Cell Culture Plate)
3 μL of each of the solutions in columns B to J was pipetted into […] of complete medium by a 10 μL manual pipette to obtain 3×compound solutions with a final concentration of 30000, 6000, 1200, 240, 48, 9.6, 1.92, 0.384 and 0.0768 nM, respectively; and 3 μL of DMSO was pipetted into […] of complete medium as a control. The resulting 96-well cell culture plate was put on an oscillator to be oscillated at 500 rpm for 30 minutes.
(1) The prepared 3×compound solutions with the above concentrations were each pipetted by a manual pipette with its volume set to 50 μL into a corresponding well of the 96-well plate after overnight culture on the first day, and the total culture volume of each well was 150 μL. The final concentrations of the compounds in the 96-well plate were 10 μM, 2 μM, 400 nM, 80 nM, 16 nM, 3.2 nM, 0.64 nM, 0.128 nM and 0.0256 nM, respectively. The resulting 96-well plate was put on an oscillator to be oscillated at 500 rpm for 10 minutes.
(2) The 96-well plate as prepared was put in a CO2 incubator for 72-hour culture.
(1) CCK-8 test solution was pipetted into the 96-well cell culture plate in an amount of 15 μL/well by a pipette with a volume set to 15 μL.
(2) The 96-well plate was put in the CO2 incubator for 4-hour culture. […]

MV4-11 xenograft tumor = assay: In vivo efficacy test, MV4-11 xenograft tumor model in mice; details: NOD-SCID mice, 5 mg/kg qd gavage, 14 days
Source text: EXAMPLE 11 In Vivo Efficacy Test of the Compound of the Present Application
Objective: To test the inhibitory effect of the test compound on the growth of xenograft tumor in nude mice with MV4-11 leukemia.
Method: NOD-SCID mice were subcutaneously inoculated with MV4-11 cells to establish an MV4-11 xenograft tumor model in mice. 16 days after inoculation (d16), average tumor volume was about 210 mm^3. According to the tumor volumes, the tumor-bearing mice were grouped in a random block method, with 6 mice in each group. The groups included a solvent control group, an ABBV-744 control group, and a test sample group, the dosage was 5 mg/kg mouse body weight, and the dose volume was 10 mL/kg mouse body weight, once a day. Each group was gavage administered for 14 consecutive days, and the solvent control group was gavage administered with a blank solvent (20% […] solution). Tumor volumes were measured twice weekly after administration of the test drug. The animals were euthanized after the test.

hERG ion channel = biological target: T1, hERG ion channel (Homo sapiens, UniProt Q12809); assay: hERG inhibition test, whole-cell patch clamp in HEK293 cells stably expressing the hERG ion channel; type: cell-based; details: tail current, Hill equation fit
T1 construct: expressed in transfected cells; host or cells: HEK293 cells stably expressing hERG
Procedure: (§1) An hERG current was recorded by the whole-cell patch clamp technique. A suspension of HEK293 cells stably expressing the hERG ion channel was added to a 35 mm culture dish, and the culture dish was put on a stage of an inverted microscope. […] The pulse program was repeated every 15 seconds throughout the whole test. After the current became stable, the administration method of continuous extracellular perfusion from low concentration to high concentration was used, and the perfusion started from low concentration and continued until the drug effect was stable, and then the perfusion of the next concentration was performed.
(§2) After the test, stimulus release and signal acquisition were carried out through PatchMaster software. Graphpad Prism 8.0 was used for further data analysis and curve fitting. Effects of each compound at different concentrations were represented with an inhibition rate of the tail current. Inhibition rate=(peak tail current before administration—peak tail current after administration)/peak tail current before administration x 100%. Half-maximal inhibitory concentration IC50 of the test samples was obtained by the fitting analysis with Hill equation.

hERG = biological target: T2, hERG (Homo sapiens, UniProt Q12809); assay: as above; type: cell-based; details: human, HEK293 cells stably expressing the hERG ion channel
T2 construct: expressed in transfected cells; host or cells: HEK293 cells stably expressing hERG
Procedure: as §1, §2

[1] = read-out: Average hERG inhibition rate
[2] = read-out: hERG Inhibition rate, Cell 1
[3] = read-out: hERG Inhibition rate, Cell 2

T2 sequence (Q12809 whole entry): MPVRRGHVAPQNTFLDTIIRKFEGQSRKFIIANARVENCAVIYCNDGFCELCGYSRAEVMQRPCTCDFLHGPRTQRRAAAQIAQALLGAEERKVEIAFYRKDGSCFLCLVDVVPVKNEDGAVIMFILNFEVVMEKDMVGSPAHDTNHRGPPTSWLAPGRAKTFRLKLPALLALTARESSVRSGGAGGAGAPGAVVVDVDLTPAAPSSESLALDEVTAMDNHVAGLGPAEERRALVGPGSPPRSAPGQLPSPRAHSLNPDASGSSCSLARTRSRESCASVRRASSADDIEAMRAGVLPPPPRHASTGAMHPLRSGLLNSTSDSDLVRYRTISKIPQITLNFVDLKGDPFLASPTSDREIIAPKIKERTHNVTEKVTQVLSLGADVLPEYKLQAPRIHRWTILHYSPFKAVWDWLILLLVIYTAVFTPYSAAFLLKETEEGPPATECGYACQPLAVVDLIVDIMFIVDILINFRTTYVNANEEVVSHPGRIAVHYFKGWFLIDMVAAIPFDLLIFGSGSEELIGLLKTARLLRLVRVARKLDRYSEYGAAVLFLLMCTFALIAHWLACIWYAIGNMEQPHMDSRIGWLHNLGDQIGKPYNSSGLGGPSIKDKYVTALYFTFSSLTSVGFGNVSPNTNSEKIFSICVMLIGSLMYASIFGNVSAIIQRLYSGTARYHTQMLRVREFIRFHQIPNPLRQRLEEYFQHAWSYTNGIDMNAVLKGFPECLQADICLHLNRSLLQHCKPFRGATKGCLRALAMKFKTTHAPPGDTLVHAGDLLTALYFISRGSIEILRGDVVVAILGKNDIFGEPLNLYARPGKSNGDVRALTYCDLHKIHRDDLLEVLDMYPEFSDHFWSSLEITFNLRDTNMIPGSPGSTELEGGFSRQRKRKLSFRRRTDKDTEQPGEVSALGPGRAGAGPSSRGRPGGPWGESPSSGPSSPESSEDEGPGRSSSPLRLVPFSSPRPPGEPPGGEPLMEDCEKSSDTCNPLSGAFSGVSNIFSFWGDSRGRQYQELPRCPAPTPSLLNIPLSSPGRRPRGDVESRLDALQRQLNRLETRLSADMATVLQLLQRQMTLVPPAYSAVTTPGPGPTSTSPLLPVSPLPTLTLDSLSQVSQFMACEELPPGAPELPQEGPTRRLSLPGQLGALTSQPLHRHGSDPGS
T1 sequence (Q12809 whole entry): as above

Compound: CCNC(=O)c1cc2c(-c3cc(C(C)(C)O)ccc3Oc3c(C)cc(F)cc3C)cn(C)c(=O)c2[nH]1 [ABBV-744, reference compound]
IC50 (MV4-11 cell): 7.22 nM | Relative tumor proliferation rate T/C (MV4-11 xenograft tumor): 45.98% | IC50 (hERG ion channel): 3120 nM | inhibition at 0.37 µM (hERG; [1]): 5.35% | inhibition at 0.37 µM (hERG; [2]): 8.24% | inhibition at 0.37 µM (hERG; [3]): 2.46% | inhibition at 1.11 µM (hERG; [1]): 17.4% | inhibition at 1.11 µM (hERG; [2]): 23% | inhibition at 1.11 µM (hERG; [3]): 11.8% | inhibition at 3.33 µM (hERG; [1]): 54.7% | inhibition at 3.33 µM (hERG; [2]): 57.7% | inhibition at 3.33 µM (hERG; [3]): 51.7% | inhibition at 10 µM (hERG; [1]): 87.6% | inhibition at 10 µM (hERG; [2]): 87.9% | inhibition at 10 µM (hERG; [3]): 87.3% | inhibition at 30 µM (hERG; [1]): 99.1% | inhibition at 30 µM (hERG; [2]): 99.4% | inhibition at 30 µM (hERG; [3]): 98.7%

Compound: CCNC(=O)c1cc2c(-c3sc(C(C)(C)O)cc3N3CCc4cccc(F)c43)cn(C)c(=O)c2[nH]1 [Compound 2, N-ethyl-4-(3-(7-fluoroindolin-1-yl)-5-(2-hydroxypropyl-2-yl)thiophen-2-yl)-6-methyl-7-oxo-6,7-dihydro-1H-pyrrolo[2,3-c]pyridine-2-carboxamide]
IC50 (MV4-11 cell): 24.2 nM

Compound: CCNC(=O)c1cc2c(-c3sc(C(C)(C)O)cc3N3CCc4cccc(C)c43)cn(C)c(=O)c2[nH]1 [Compound 3, N-ethyl-4-(5-(2-hydroxypropyl-2-yl)-3-(7-methylindolin-1-yl)thiophen-2-yl)-6-met hyl-7-oxo-6,7-dihydro-1H-pyrrolo[2,3-c]pyridine-2-carboxamide]
IC50 (MV4-11 cell): 39.8 nM

Continued by falling IC50 (MV4-11 cell), values first:

IC50 (MV4-11 cell): 17.3 nM
Compound: CCNC(=O)c1cc2c(-c3sc(C(C)(C)O)cc3N3CCc4cccc(C(F)(F)F)c43)cn(C)c(=O)c2[nH]1 [Compound 7, N-ethyl-4-(5-(2-hydroxypropyl-2-yl)-3-(7-(trifluoromethyl)indolin-1-yl)thiophen-2-yl)-6-methyl-7-oxo-6,7-dihydro-1H-pyrrolo[2,3-c]pyridine-2-carboxamide]

IC50 (MV4-11 cell): 12.1 nM
Compound: CCNC(=O)c1cc2c(-c3sc(C(C)(C)O)cc3N3CCc4cc(C(F)(F)F)ccc43)cn(C)c(=O)c2[nH]1 [Compound 5, N-ethyl-4-(5-(2-hydroxypropyl-2-yl)-3-(5-trifluoromethylindolin-1-yl)thiophen-2-y I)-6-methyl-7-oxo-6,7-dihydro-1H-pyrrolo[2,3-c]pyridine-2-carboxamide]

IC50 (MV4-11 cell): 8.2 nM
Compound: CCNC(=O)c1cc2c(-c3sc(C(C)(C)O)cc3N3CCCc4cc(F)ccc43)cn(C)c(=O)c2[nH]1 [Compound 6, N-ethyl-4-(5-(2-hydroxypropyl-2-yl)-3-(6-fluoro-3,4-dihydroquinolin-1(2H)-yl)thiophen-2-yl)-6-methyl-7-oxo-6,7-dihydro-1H-pyrrolo[2,3-c]pyridine-2-carboxamide]

IC50 (MV4-11 cell): 6.3 nM
Compound: CCNC(=O)c1cc2c(-c3sc(C(C)(C)O)cc3N3CCc4cc(F)ccc43)cn(C)c(=O)c2[nH]1 [Compound 4, N-ethyl-4-(3-(5-fluoroindolin-1-yl)-5-(2-hydroxypropyl-2-yl)thiophen-2-yl)-6-methyl-7-oxo-6,7-dihydro-1H-pyrrolo[2,3-c]pyridine-2-carboxamide]
